Source: article PMC9716045 (Journal of Pesticide Science, 2022)

Tests used:
DHODH of rats = conditions: read-out: IC50 value for DHODH; cited from earlier work
DHODH of mice = conditions: read-out: IC50 value for DHODH; cited from earlier work
DHODH of humans = conditions: read-out: IC50 value for DHODH; cited from earlier work
DHODH of A. fumigatus = conditions: read-out: IC50 value for DHODH; cited from earlier work
P. oryzae 40901 = assay type: cell-based, Pyricularia oryzae
Fusarium graminearum = conditions: cited from earlier work
Sclerotinia sclerotiorum = conditions: cited from earlier work
P. oryzae = assay type: cell-based, Pyricularia oryzae

Structure (SMILES): C/C(O)=C(\C#N)C(=O)Nc1ccc(C(F)(F)F)cc1 [A77-1726, teriflunomide]
- IC50 (DHODH of rats): 18 ± 3 nM
- IC50 (DHODH of mice): 82 ± 21 nM
- IC50 (DHODH of humans): 773 ± 78 nM

Structure (SMILES): Cc1cc(-c2ccccc2)c(C(=O)C(=O)Nc2ccc(N3CCN(c4ncc(F)cn4)CC3)cc2)n1C [F901318, olorofim]
- IC50 (DHODH of A. fumigatus): 44 ± 10 nM

Structure (SMILES): CC1(C)N=C(c2cnc3ccccc3c2)c2ccccc2C1(F)F [quinofumelin, 3-(4,4-difluoro-3,3-dimethyl-3,4-dihydroisoquinolin-1-yl)quinoline]
- mycelial growth on minimal medium agar plates (P. oryzae 40901): could not be recognized
- mycelial growth with exogenous orotate at high quinofumelin concentration (P. oryzae 40901): slow mycelial growth
- recovery of mycelial growth by exogenous dihydroorotate (P. oryzae 40901): did not recover
- recovery of mycelial growth by exogenous orotate (P. oryzae 40901): recovered
- recovery of mycelial growth by exogenous uracil (P. oryzae 40901): restored
- antifungal activity on PDA medium (Fusarium graminearum): strong antifungal activity
- antifungal activity on PDA medium (Sclerotinia sclerotiorum): strong antifungal activity
- antifungal activity on PDA medium (P. oryzae): moderate antifungal activity
